Assay results reported in paper PMC2365028, “Transepithelial Transport and Metabolism of Boronated Dipeptides Across Caco-2 and HCT-8 Cell Monolayers” (Metal-Based Drugs, 1996).
“And” between values parts separate entries of the source, which are not always exact repeats. Equal values may be shown once.

Legend:
[1] = system: Caco-2 cell monolayers; experiment: Apical-to-basal transport and metabolism across Caco-2 cell monolayers (Transwell); details: for % Mass Balance / % Mass Transported / % Mass in Apical Side / Mass Transported (collected in the basal medium after 4 hours): Table 5; for Mass Transported (collected in the basal medium after 4 hours): initial concentration figure not printed (mM); for % Ester in the basal compartment / % FA (corresponding free acid) in the basal compartment: Table 9, side-by-side experiment
Description: TRANSEPITHELIAL TRANSPORT AND METABOLISM OF BORONATED DIPEPTIDES ACROSS CACO-2 AND HCT-8 CELL MONOLAYERS Amy L. Elkins,John G. Eley,3, Merrill C. […] This study examined the effect of boronation on the transepithelial transport and metabolism of three glycine-phenylalanine dipeptides in Caco-2 and HCT-8 cell monolayers. […] Oral delivery of proteins and peptides as therapeutic agents is problematic due to their low bioavailability. This is mainly due to both their poor permeability across cellular barriers and to enzymatic degradation that occurs in the gut lumen, brush border, and enterocyte cytoplasm (2). […] Such as a substitution may also have the potential to alter the in vivo bioavailability of dipeptides. […] This study was undertaken to determine the effect of boronation on the transepithelial transport and metabolism of three glycine-phenylalanine dipeptides. […] Caco-2 cells are human colon adenocarcinoma cells first isolated from a primary colonic tumor (4). The cell line undergoes spontaneous enterortic differentiation in culture after reaching cotfflucnce, and morphologically resembles small intestinal epitheliun after three xveeks in culture (5). These morphological characteristics include the development of a brush border region expressing microvilli, occluding junctions, dome formations, and the formation of tight junctions leading to cell polarity. […] The cell line expresses a dipeptide carrier transport system in both the apical and basal membranes (9-10). […] HCT-8 cells are human adenocarcinoma cells from the ileocecal region; as such, these cells may give a truer reflection of gut absorption compared to Caco-2 cells which are derived from the colonic region. The cells produce a polarized differentiated monolayer consisting of enterocyte-like columnar cells that are interconnected by mature tightjunctions and desmosomes and exposed microvilla (11). The structural and functional integrity of the tight junctions of cells grown on polyester filter cups (Falcon, BD) and membrane filter inserts (Transwell(R), Costar) have been confirmed by transmission electron microscopy, transepithelial electrical resistance measurements, and transport of impermeant markers such as mannitol and polyethylene glycol (11, 12). […] Compound//was donated by Boron Biologicals, Inc., Raleigh, NC. Compound 111 was synthesized as follows: L-phenylalanine methyl ester hydrochloride (2.09 g, 9.7 mmol) and dimethylglycine (1 g, 9.7 retool) xvere suspended in 30 ml dry tetrahydrofuran with 10 mmol of triethylamine, dicyclohexyl-carbodiinfide and hydrox3'benzotriazole. The reaction was stirred at room temperature for 48 hours under nitrogen and the solvent was removed under reduced pressure. The product was purified on silica gel, two void volumes of hexane, two void volumes hexane/ethanol (8'1), and then hexane/ethanol (5:1). […] For the transport studies, cells were diluted with growth medium to give a total of […] cells/cm in 1.5 mls. The 1.5 ntis was placed in the apical compartment of a Transwcll(R) (Costar). The Transxvell(R) system is a 6-well plate with each well having an apical compartment capacity of 1.5 ntis, a basal compartment capacity of 2.5 ntis, and a 4.71 cm polycarbonate microporous (0.45 gin) membrane separating the two compartments. Cell monolayers in the Transwell(R) were allowed to grow for 21 days while the medium was replaced every 3 days. The cells were grown in Dulbecco's Modified Eagle Medium (D-MEM) containing L-glutamine and sodium pyruvate at 37C under 5% CO-. and saturated humidity. Additives to the medium included 10% heat- inactivated fetal bovine serum, 10 mM nonessential amino acids, 100 units of penicillin and […] of streptomycin per ml of medium. 278 A.L. Elkins, J.G. Eley, M.C.

[2] = Stability in HBSS/HEPES buffer and apical/basal media without the Transwell system; format: physicochemical; details: HBSS/HEPES buffer pH 7.4, 37C, or apical and basal media
[3] = in vitro; details: human, Caco-2
Description: TRANSEPITHELIAL TRANSPORT AND METABOLISM OF BORONATED DIPEPTIDES ACROSS CACO-2 AND HCT-8 CELL MONOLAYERS Amy L. Elkins,John G. Eley,3, Merrill C. […] This study examined the effect of boronation on the transepithelial transport and metabolism of three glycine-phenylalanine dipeptides in Caco-2 and HCT-8 cell monolayers. […] Oral delivery of proteins and peptides as therapeutic agents is problematic due to their low bioavailability. This is mainly due to both their poor permeability across cellular barriers and to enzymatic degradation that occurs in the gut lumen, brush border, and enterocyte cytoplasm (2). […] Such as a substitution may also have the potential to alter the in vivo bioavailability of dipeptides. […] This study was undertaken to determine the effect of boronation on the transepithelial transport and metabolism of three glycine-phenylalanine dipeptides. […] Caco-2 cells are human colon adenocarcinoma cells first isolated from a primary colonic tumor (4). The cell line undergoes spontaneous enterortic differentiation in culture after reaching cotfflucnce, and morphologically resembles small intestinal epitheliun after three xveeks in culture (5). These morphological characteristics include the development of a brush border region expressing microvilli, occluding junctions, dome formations, and the formation of tight junctions leading to cell polarity. […]

Question: With `COC(=O)[C@H](Cc1ccccc1)NC(=O)[BH2-][NH+](C)C` [Compound II, N-[(dimethylamine-boryl)-carbonyl]-L-phenylalanine methyl ester] as the compound, how does the “% Mass Balance” value ([1]; 4 h, 4C Rocking) read?
Answer: Its value is 81.8%.

Question: What about the “% Mass Transported” value ([1]; 4 h, 4C Rocking) of the same compound?
Answer: Its value is 37.3%.

Question: And the “% Mass in Apical Side” value ([1]; 4 h, 4C Rocking)?
Answer: Its value is 44.5%.

Question: What about the “% Mass Balance” value ([1]; 4 h, 4C Static) of the same compound?
Answer: Its value is 79.9%.

Question: And the “% Mass Transported” value ([1]; 4 h, 4C Static)?
Answer: Its value is 39.3%.

Question: What about the “% Mass in Apical Side” value ([1]; 4 h, 4C Static) of the same compound?
Answer: Its value is 40.6%.

Question: What about the “% Mass Balance” value ([1]; 4 h, 37C Static) of the same compound?
Answer: Its value is 57.7%.

Question: What about the “% Mass Transported” value ([1]; 4 h, 37C Static) of the same compound?
Answer: Its value is 52.7%.

Question: And the “% Mass in Apical Side” value ([1]; 4 h, 37C Static)?
Answer: Its value is 5.0%.

Question: And the “Mass Transported (collected in the basal medium after 4 hours)” value ([1]; 4C Rocking)?
Answer: Its value is 0.56.

Question: And the “Mass Transported (collected in the basal medium after 4 hours)” value ([1]; 4C Static)?
Answer: The value was 0.59.

Question: And the “Mass Transported (collected in the basal medium after 4 hours)” value ([1]; 37C Static)?
Answer: Its value is 0.79.

Question: And the Apparent permeability coefficient Pe + SD ([1]; Table 6, 4 h, 37C Rocking)?
Answer: Its Apparent permeability coefficient Pe + SD is 48 ×10⁻⁶ cm/s.

Question: What about the “Pseudo first-order rate constant k + SD” value ([1]; Table 6, 4 h, 37C Rocking) of the same compound?
Answer: Its value is 2.8 + 0.22 x 104/sec.

Question: What about the “% Ester in the basal compartment” value ([1]; 4 h, 4C Rocking) of the same compound?
Answer: The value was 55.5%.

Question: And the “% FA (corresponding free acid) in the basal compartment” value (shortened to “% FA (corresponding free acid)”) ([1]; 4 h, 4C Rocking)?
Answer: The value was “inhibited”.

Question: What about the “% Ester in the basal compartment” value ([1]; 4 h, 4C Static) of the same compound?
Answer: Its value is 59.4%.

Question: What about the “% FA (corresponding free acid)” value ([1]; 4 h, 4C Static) of the same compound?
Answer: The value was “inhibited”.

Question: And the “% Ester in the basal compartment” value ([1]; 4 h, 37C Static)?
Answer: Its value is 48.6% and 49%.

Question: What about the “% FA (corresponding free acid)” value ([1]; 4 h, 37C Static) of the same compound?
Answer: Its value is 51.5% and 52%.

Question: What about the “mode of transport across the monolayer” value ([1]; apical-to-basal) of the same compound?
Answer: The value was “passive diffusion”.

Question: What about the “compound recovered after transport through Caco-2 cell monolayers” value ([1]; apical-to-basal, 4 hours) of the same compound?
Answer: The value was 58%.

Question: And the “recovery after quantitating the free acids at the conclusion of transport experiments” value ([1]; ester plus free acid)?
Answer: Its value is 100%.

Question: What about the “% of the original ester at 25 hours” value [2] of the same compound?
Answer: The value was 90%.

Question: For `CCCOC(=O)c1ccc(O)cc1` [Propyl paraben, reference compound], which “mode of transport across the monolayer” value ([1]; Caco-2) is on record?
Answer: Its value is “passive diffusion”.

Question: And the “compound recovered after transport through Caco-2 cell monolayers” value ([1]; human, Caco-2, 4 h)?
Answer: The value was 100%.

Question: What about the recovery [3] of the same compound?
Answer: The recovery was 100%.

Question: Which Apparent permeability coefficient Pe + SD ([1]; Table 8, 4 h, 4C Static) does the source give for `COC(=O)[C@H](Cc1ccccc1)NC(=O)CN(C)C` [Compound III, N,N-dimethylglycyl-L-phenylalanine methyl ester] here?
Answer: Its Apparent permeability coefficient Pe + SD is 8 ×10⁻⁶ cm/s.
